Assay results taken from the NIST ThermoML archive (doi:10.1016/j.fluid.2011.06.020).
± gives the expanded uncertainty stated by the source.

Details: Liquid, Closed cell (Static) method

CCOC(=O)CCC(=O)O [4-ethoxy-4-oxobutanoic acid]
vapor or sublimation pressure (417.7 K): 1.587 ± 0.031 kPa
vapor or sublimation pressure (421.2 K): 2.089 ± 0.03 kPa
vapor or sublimation pressure (425.1 K): 2.591 ± 0.03 kPa
vapor or sublimation pressure (428.5 K): 3.094 ± 0.029 kPa
vapor or sublimation pressure (433 K): 3.596 ± 0.032 kPa
vapor or sublimation pressure (435.6 K): 4.098 ± 0.054 kPa
vapor or sublimation pressure (436.7 K): 4.601 ± 0.048 kPa
vapor or sublimation pressure (439.8 K): 5.103 ± 0.2 kPa
vapor or sublimation pressure (440.3 K): 5.605 ± 0.2 kPa
vapor or sublimation pressure (443 K): 6.107 ± 0.053 kPa
vapor or sublimation pressure (444.3 K): 6.61 ± 0.073 kPa
vapor or sublimation pressure (445.9 K): 7.112 ± 0.065 kPa
vapor or sublimation pressure (447.6 K): 7.614 ± 0.067 kPa
vapor or sublimation pressure (449.1 K): 8.117 ± 0.074 kPa
vapor or sublimation pressure (450.5 K): 8.619 ± 0.072 kPa
vapor or sublimation pressure (452.1 K): 9.121 ± 0.079 kPa
vapor or sublimation pressure (453.2 K): 9.624 ± 0.082 kPa
vapor or sublimation pressure (454.7 K): 10.13 ± 0.085 kPa
vapor or sublimation pressure (455.7 K): 10.63 ± 0.12 kPa
vapor or sublimation pressure (456.5 K): 11.13 ± 0.14 kPa
vapor or sublimation pressure (457.2 K): 11.63 ± 0.12 kPa
vapor or sublimation pressure (458.2 K): 12.14 ± 0.12 kPa
vapor or sublimation pressure (458.4 K): 12.64 ± 0.12 kPa
vapor or sublimation pressure (459.8 K): 13.14 ± 0.34 kPa
vapor or sublimation pressure (460.1 K): 13.64 ± 0.23 kPa
vapor or sublimation pressure (460.3 K): 14.14 ± 0.23 kPa
vapor or sublimation pressure (461.1 K): 14.65 ± 0.13 kPa
vapor or sublimation pressure (462 K): 15.15 ± 0.1 kPa
vapor or sublimation pressure (463.3 K): 15.65 ± 0.11 kPa
vapor or sublimation pressure (463.8 K): 16.15 ± 0.23 kPa
vapor or sublimation pressure (464.2 K): 16.66 ± 0.29 kPa
vapor or sublimation pressure (464.5 K): 17.16 ± 0.2 kPa
vapor or sublimation pressure (465.2 K): 17.66 ± 0.16 kPa
vapor or sublimation pressure (465.8 K): 18.16 ± 0.14 kPa
vapor or sublimation pressure (466.7 K): 18.67 ± 0.14 kPa
vapor or sublimation pressure (467.3 K): 19.17 ± 0.19 kPa
vapor or sublimation pressure (467.8 K): 19.67 ± 0.21 kPa
vapor or sublimation pressure (468.3 K): 20.17 ± 0.21 kPa
vapor or sublimation pressure (468.8 K): 20.67 ± 0.18 kPa
vapor or sublimation pressure (469.5 K): 21.18 ± 0.28 kPa
vapor or sublimation pressure (469.7 K): 21.68 ± 0.3 kPa
vapor or sublimation pressure (469.8 K): 22.18 ± 0.51 kPa
vapor or sublimation pressure (470.1 K): 22.68 ± 0.51 kPa
vapor or sublimation pressure (470.3 K): 23.19 ± 0.39 kPa
vapor or sublimation pressure (470.4 K): 23.69 ± 0.39 kPa
vapor or sublimation pressure (470.5 K): 24.19 ± 0.39 kPa
vapor or sublimation pressure (471.1 K): 24.69 ± 0.23 kPa
vapor or sublimation pressure (471.4 K): 25.2 ± 0.26 kPa
vapor or sublimation pressure (471.9 K): 25.7 ± 0.21 kPa
